US20070287752A1, “Ophthalmic Compositions Comprising A Branched, Glycerol Compound” (priority 2006, published 2007)

How the values were obtained:
Test in all cases: Preservative/disinfectant system efficacy testing (log reduction)
Format in all cases: cell-based
[1] = test system: Candida albicans (ATCC 10231)
Method: (§1) The ophthalmic compositions are evaluated in accordance with specific procedures outlined by the US Food & Drug Administration and the International Organization for Standardization for the testing of microbiocidal efficacy.

[2] = test system: Fusarium solani (ATCC 36031)
Method: as §1

[3] = test system: Serratia marcescens (ATCC 13880)
Method: as §1

[4] = test system: Staphylococcus aureus (ATCC 6538)
Method: as §1

[5] = 1 hr, Table 5A multi-purpose lens care solution, 10% organic soil, disinfectant concentrations as in label
[6] = 1 hr, phosphate buffered saline, 10% organic soil, concentrations as in label (Table 4)
[7] = 4 hr, Table 5A multi-purpose lens care solution, 10% organic soil, disinfectant concentrations as in label
[8] = 4 hr, phosphate buffered saline, 10% organic soil, concentrations as in label (Table 4)
[9] = EHOPD 0.0001 wt %, 1 hr, borate buffered saline, 10% organic soil
[10] = EHOPD 0.0001 wt %, 1 hr, phosphate buffered saline, 10% Organic Soil
[11] = EHOPD 0.0001 wt %, 4 hr, borate buffered saline, 10% organic soil
[12] = EHOPD 0.0001 wt %, 4 hr, phosphate buffered saline, 10% Organic Soil
[13] = EHOPD 0.001 wt %, 1 hr, borate buffered saline, 10% organic soil
[14] = EHOPD 0.001 wt %, 1 hr, phosphate buffered saline, 10% Organic Soil
[15] = EHOPD 0.001 wt %, 4 hr, borate buffered saline, 10% organic soil
[16] = EHOPD 0.001 wt %, 4 hr, phosphate buffered saline, 10% Organic Soil
[17] = EHOPD 0.01 wt %, 1 hr, Table 3A multi-purpose lens care formulation, 10% organic soil
[18] = EHOPD 0.01 wt %, 1 hr, borate buffered saline, 10% organic soil
[19] = EHOPD 0.01 wt %, 1 hr, phosphate buffered saline, 10% Organic Soil
[20] = EHOPD 0.01 wt %, 4 hr, Table 3A multi-purpose lens care formulation, 10% organic soil
[21] = EHOPD 0.01 wt %, 4 hr, borate buffered saline, 10% organic soil
[22] = EHOPD 0.01 wt %, 4 hr, phosphate buffered saline, 10% Organic Soil
[23] = EHOPD 0.1 wt %, 1 hr, Table 3A multi-purpose lens care formulation, 10% organic soil
[24] = EHOPD 0.1 wt %, 1 hr, borate buffered saline, 10% organic soil
[25] = EHOPD 0.1 wt %, 1 hr, phosphate buffered saline, 10% Organic Soil
[26] = EHOPD 0.1 wt %, 4 hr, Table 3A multi-purpose lens care formulation, 10% organic soil
[27] = EHOPD 0.1 wt %, 4 hr, borate buffered saline, 10% organic soil
[28] = EHOPD 0.1 wt %, 4 hr, phosphate buffered saline, 10% Organic Soil
[29] = EHOPD 0.15 wt %, 1 hr, Table 3A multi-purpose lens care formulation, 10% organic soil
[30] = EHOPD 0.15 wt %, 4 hr, Table 3A multi-purpose lens care formulation, 10% organic soil
[31] = EHOPD 0.25 wt %, 1 hr, Table 3A multi-purpose lens care formulation, 10% organic soil
[32] = EHOPD 0.25 wt %, 4 hr, Table 3A multi-purpose lens care formulation, 10% organic soil
[33] = EHOPD 0.50 wt %, 1 hr, Table 3A multi-purpose lens care formulation, 10% organic soil
[34] = EHOPD 0.5 wt %, 1 hr, borate buffered saline, 10% organic soil
[35] = EHOPD 0.5 wt %, 1 hr, phosphate buffered saline, 10% Organic Soil
[36] = EHOPD 0.50 wt %, 4 hr, Table 3A multi-purpose lens care formulation, 10% organic soil
[37] = EHOPD 0.5 wt %, 4 hr, borate buffered saline, 10% organic soil
[38] = EHOPD 0.5 wt %, 4 hr, phosphate buffered saline, 10% Organic Soil
[39] = EHOPD 0.75 wt %, 1 hr, Table 3A multi-purpose lens care formulation, 10% organic soil
[40] = EHOPD 0.75 wt %, 4 hr, Table 3A multi-purpose lens care formulation, 10% organic soil
[41] = EHOPD 1.0 wt %, 1 hr, Table 3A multi-purpose lens care formulation, 10% organic soil
[42] = EHOPD 1.0 wt %, 4 hr, Table 3A multi-purpose lens care formulation, 10% organic soil

CCCCC(CC)COCC(O)CO (centres unmarked) [EHOPD, 3-[(2-ethylhexyl)oxy]-1,2-propanediol]
log reduction C. albicans [1, 5]: 2.1
log reduction C. albicans [1, 6]: >5.0
log reduction C. albicans [1, 7]: 2.8
log reduction C. albicans [1, 8]: >5.0
log reduction C. albicans [1, 9]: 2.3
log reduction C. albicans [1, 10]: 2.3
log reduction C. albicans [1, 11]: 2.3
log reduction C. albicans [1, 12]: 2.3
log reduction C. albicans [1, 13]: 2.3
log reduction C. albicans [1, 14]: 2.3
log reduction C. albicans [1, 15]: 2.3
log reduction C. albicans [1, 16]: 2.3
log reduction C. albicans [1, 17]: 2.0
log reduction C. albicans [1, 18]: 2.3
log reduction C. albicans [1, 19]: 2.3
log reduction C. albicans [1, 20]: 2.0
log reduction C. albicans [1, 21]: 2.3
log reduction C. albicans [1, 22]: 2.3
log reduction C. albicans [1, 23]: 2.0
log reduction C. albicans [1, 24]: 5.4
log reduction C. albicans [1, 25]: 3.8
log reduction C. albicans [1, 26]: 2.0
log reduction C. albicans [1, 27]: >5.7
log reduction C. albicans [1, 28]: >5.7
log reduction C. albicans [1, 29]: 2.0
log reduction C. albicans [1, 30]: 2.0
log reduction C. albicans [1, 31]: 2.0
log reduction C. albicans [1, 32]: 2.0
log reduction C. albicans [1, 33]: 2.0
log reduction C. albicans [1, 34]: 5.1
log reduction C. albicans [1, 35]: 3.8
log reduction C. albicans [1, 36]: 3.1
log reduction C. albicans [1, 37]: >5.7
log reduction C. albicans [1, 38]: >5.7
log reduction C. albicans [1, 39]: 4.2
log reduction C. albicans [1, 40]: >5.5
log reduction C. albicans [1, 41]: >5.5
log reduction C. albicans [1, 42]: >5.5
log reduction F. solani [2, 5]: 3.1
log reduction F. solani [2, 6]: 2.5
log reduction F. solani [2, 7]: 5.0
log reduction F. solani [2, 8]: 5.0
log reduction F. solani [2, 9]: 1.3
log reduction F. solani [2, 10]: 2.3
log reduction F. solani [2, 11]: 2.1
log reduction F. solani [2, 12]: 2.3
log reduction F. solani [2, 13]: 1.9
log reduction F. solani [2, 14]: 1.8
log reduction F. solani [2, 15]: 1.9
log reduction F. solani [2, 16]: 2.9
log reduction F. solani [2, 17]: 0.3
log reduction F. solani [2, 18]: 2.4
log reduction F. solani [2, 19]: 3.6
log reduction F. solani [2, 20]: 0.5
log reduction F. solani [2, 21]: >5.8
log reduction F. solani [2, 22]: >5.8
log reduction F. solani [2, 23]: 0.3
log reduction F. solani [2, 24]: >5.8
log reduction F. solani [2, 25]: >5.8
log reduction F. solani [2, 26]: 0.5
log reduction F. solani [2, 27]: >5.8
log reduction F. solani [2, 28]: >5.8
log reduction F. solani [2, 29]: 0.5
log reduction F. solani [2, 30]: >4.7
log reduction F. solani [2, 31]: 0.8
log reduction F. solani [2, 32]: >4.7
log reduction F. solani [2, 33]: >4.7
log reduction F. solani [2, 34]: >5.8
log reduction F. solani [2, 35]: >5.8
log reduction F. solani [2, 36]: >4.7
log reduction F. solani [2, 37]: >5.8
log reduction F. solani [2, 38]: >5.8
log reduction F. solani [2, 39]: >4.7
log reduction F. solani [2, 40]: >4.7
log reduction F. solani [2, 41]: >4.7
log reduction F. solani [2, 42]: >4.7
log reduction S. marcescens [3, 5]: 2.3
log reduction S. marcescens [3, 6]: 3.0
log reduction S. marcescens [3, 7]: 3.3
log reduction S. marcescens [3, 8]: 3.9
log reduction S. marcescens [3, 9]: 1.7
log reduction S. marcescens [3, 10]: 1.7
log reduction S. marcescens [3, 11]: 1.7
log reduction S. marcescens [3, 12]: 1.7
log reduction S. marcescens [3, 13]: 1.7
log reduction S. marcescens [3, 14]: 1.7
log reduction S. marcescens [3, 15]: 1.7
log reduction S. marcescens [3, 16]: 3.2
log reduction S. marcescens [3, 17]: 2.0
log reduction S. marcescens [3, 18]: 1.7
log reduction S. marcescens [3, 19]: >5.2
log reduction S. marcescens [3, 20]: 2.0
log reduction S. marcescens [3, 21]: 1.7
log reduction S. marcescens [3, 22]: >5.2
log reduction S. marcescens [3, 23]: 2.0
log reduction S. marcescens [3, 24]: 4.8
log reduction S. marcescens [3, 25]: >5.2
log reduction S. marcescens [3, 26]: 2.0
log reduction S. marcescens [3, 27]: >5.2
log reduction S. marcescens [3, 28]: >5.2
log reduction S. marcescens [3, 29]: 2.0
log reduction S. marcescens [3, 30]: 4.7
log reduction S. marcescens [3, 31]: >5.4
log reduction S. marcescens [3, 32]: >5.4
log reduction S. marcescens [3, 33]: >5.4
log reduction S. marcescens [3, 34]: 4.9
log reduction S. marcescens [3, 35]: >5.2
log reduction S. marcescens [3, 36]: >5.4
log reduction S. marcescens [3, 37]: >5.2
log reduction S. marcescens [3, 38]: >5.2
log reduction S. marcescens [3, 39]: >5.4
log reduction S. marcescens [3, 40]: >5.4
log reduction S. marcescens [3, 41]: >5.4
log reduction S. marcescens [3, 42]: >5.4
log reduction S. aureus [4, 5]: 1.2
log reduction S. aureus [4, 6]: 1.2
log reduction S. aureus [4, 7]: 1.2
log reduction S. aureus [4, 8]: 1.3
log reduction S. aureus [4, 9]: 1.4
log reduction S. aureus [4, 10]: 1.4
log reduction S. aureus [4, 11]: 1.4
log reduction S. aureus [4, 12]: 1.4
log reduction S. aureus [4, 13]: 1.4
log reduction S. aureus [4, 14]: 1.4
log reduction S. aureus [4, 15]: 1.4
log reduction S. aureus [4, 16]: 1.4
log reduction S. aureus [4, 17]: 1.4
log reduction S. aureus [4, 18]: 1.4
log reduction S. aureus [4, 19]: 1.4
log reduction S. aureus [4, 20]: 1.4
log reduction S. aureus [4, 21]: 1.4
log reduction S. aureus [4, 22]: 1.4
log reduction S. aureus [4, 23]: 1.4
log reduction S. aureus [4, 24]: 1.7
log reduction S. aureus [4, 25]: 1.4
log reduction S. aureus [4, 26]: 1.4
log reduction S. aureus [4, 27]: 4.0
log reduction S. aureus [4, 28]: 3.0
log reduction S. aureus [4, 29]: 1.4
log reduction S. aureus [4, 30]: 1.4
log reduction S. aureus [4, 31]: 1.4
log reduction S. aureus [4, 32]: 1.4
log reduction S. aureus [4, 33]: 1.4
log reduction S. aureus [4, 34]: 1.8
log reduction S. aureus [4, 35]: 1.4
log reduction S. aureus [4, 36]: 1.8
log reduction S. aureus [4, 37]: 4.3
log reduction S. aureus [4, 38]: 3.1
log reduction S. aureus [4, 39]: 1.6
log reduction S. aureus [4, 40]: 3.1
log reduction S. aureus [4, 41]: 2.2
log reduction S. aureus [4, 42]: 3.7
